Laboratory results from ChEMBL document CHEMBL6182924, “Discovery of a Novel and Potent MET Transcription Inhibitor Targeting Promoter G-Quadruplex for the Treatment of NSCLC” (J Med Chem, 2025).
The source made the active and inactive calls. No cut-off for these calls is given here.

Legend:
NCI-H1975 [1] = experiment: Antiproliferative activity against MET knockdown human NCI-H1975 cells assessed as inhibition of cell growth by CCK-8 assay; format: functional, cell-based
A549 [2] = experiment: Induction of apoptosis in human A549 cells assessed as viable cells at 2 uM incubated for 24 hrs by Annexin V-FITC/PI staining based flow cytometry analysis (reference value: 91.3%); format: functional; details: read-out: Activity
A549 [3] = experiment: Induction of apoptosis in human A549 cells assessed as viable cells at 0.5 uM incubated for 24 hrs by Annexin V-FITC/PI staining based flow cytometry analysis (reference value: 91.3%); format: functional; details: read-out: Activity
NCI-H1975 [4] = experiment: Inhibition of cell invasion in human NCI-H1975 cells incubated for 12 hrs; format: functional, cell-based; details: dose 0.5-2 µM
BaF3 = experiment: Antiproliferative activity against mouse BaF3 cells harboring TPR-MET […] mutant incubated for 24 hrs by CCK-8 assay; format: functional, cell-based; details: BaF3, 24 h
A549 [5] = experiment: Induction of cell cycle arrest in human A549 cells assessed as accumulation of cells at G1 phase at 1 uM measured for 24 hrs by PI/Rnase staining based flow cytometry (reference value: 75.2 %); format: functional
A549 [6] = experiment: Inhibition of cell invasion in human A549 cells incubated for 12 hrs; format: functional, cell-based; details: dose 0.5-2 µM
NCI-H1975 [7] = experiment: Induction of cell cycle arrest in human NCI-H1975 cells assessed as accumulation of cells at G1 phase at 2 uM measured for 24 hrs by PI/Rnase staining based flow cytometry (reference value: 79.2 %); format: functional
NCI-H1975 [8] = experiment: Induction of cell cycle arrest in human NCI-H1975 cells assessed as accumulation of cells at G1 phase at 0.5 uM measured for 24 hrs by PI/Rnase staining based flow cytometry (reference value: 79.2 %); format: functional
A549 [9] = experiment: Inhibition of c-MET expression in human A549 cells up to 2000 nM by Western blot analysis; format: functional, cell-based
[10] = Toxicity in BALB/c mouse xenografted with human A549 cells assessed as heart damage at 40 mg/kg, po administered once a day and measured after 20 days by H and E staining based analysis; format: organism-based; details: in vivo, 480 h, time 20 day
A549 [11] = experiment: Induction of apoptosis in human A549 cells assessed as late apoptotic cells at 2 uM incubated for 24 hrs by Annexin V-FITC/PI staining based flow cytometry analysis (reference value: 2.56 %); format: functional
[12] = Toxicity in BALB/c mouse xenografted with human A549 cells assessed as lung damage at 40 mg/kg, po administered once a day and measured after 20 days by H and E staining based analysis; format: organism-based; details: in vivo, 480 h, time 20 day
[13] = Acute toxicity in Sprague-Dawley rat assessed as spleen damage at 500 to 2000 mg/kg, po measured every 2 days by H and E staining based analysis; format: organism-based; details: in vivo, 48 h, dose 500-2000 mg/kg, time 2 day
A549 [14] = experiment: Antitumor activity against human A549 cells xenografted in BALB/c mouse assessed as tumor growth inhibition at 20 mg/kg, ip administered once a day and measured up to 24 days; format: functional; details: A549, 576 h, time <= 24 day, read-out: TGI
[15] = Acute toxicity in Sprague-Dawley rat assessed as heart damage at 500 to 2000 mg/kg, po measured every 2 days by H and E staining based analysis; format: organism-based; details: in vivo, 48 h, dose 500-2000 mg/kg, time 2 day
A549 [16] = experiment: Inhibition of cell migration in human A549 cells incubated for 12 hrs by crystal violet staining based analysis; format: functional; details: dose 0.5-2 µM
A549 [17] = experiment: Induction of apoptosis in human A549 cells assessed as necrotic cells at 2 uM incubated for 24 hrs by Annexin V-FITC/PI staining based flow cytometry analysis (reference value: 4.37 %); format: functional
[18] = Toxicity in BALB/c mouse xenografted with human A549 cells assessed as kidney damage at 20 mg/kg, po administered once a day and measured after 20 days by H and E staining based analysis; format: organism-based; details: in vivo, 480 h, time 20 day
A549 [19] = experiment: Antitumor activity against human A549 cells xenografted in BALB/c mouse assessed as downregulation of AKT expression in tumor at 20 mg/kg, po administered once a day and measured for 20 days by Western blot analysis; format: functional, organism-based; details: time 20.0 day
A549 [20] = experiment: Antitumor activity against human A549 cells xenografted in BALB/c mouse assessed as reduction in ki67 expression in tumor at 40 mg/kg, po administered once a day and measured up to 24 days by […] based analysis; format: functional, organism-based; details: time <= 24.0 day
[21] = Toxicity in BALB/c mouse xenografted with human A549 cells assessed as liver damage at 40 mg/kg, po administered once a day and measured after 20 days by H and E staining based analysis; format: organism-based; details: in vivo, 480 h, time 20 day
[22] = Toxicity in BALB/c mouse xenografted with human A549 cells assessed as lung damage at 20 mg/kg, po administered once a day and measured after 20 days by H and E staining based analysis; format: organism-based; details: in vivo, 480 h, time 20 day
A549 [23] = experiment: Induction of cell cycle arrest in human A549 cells assessed as accumulation of cells at G1 phase at 0.5 uM measured for 24 hrs by PI/Rnase staining based flow cytometry (reference value: 75.2 %); format: functional
A549 [24] = experiment: Induction of apoptosis in human A549 cells assessed as viable cells at 1 uM incubated for 24 hrs by Annexin V-FITC/PI staining based flow cytometry analysis (reference value: 91.3%); format: functional; details: read-out: Activity
A549 [25] = experiment: Antitumor activity against human A549 cells xenografted in BALB/c mouse assessed as tumor growth inhibition at 40 mg/kg, po administered once a day and measured up to 24 days; format: functional; details: A549, 576 h, time <= 24 day, read-out: TGI
A549 [26] = experiment: Induction of apoptosis in human A549 cells assessed as early apoptotic cells at 1 uM incubated for 24 hrs by Annexin V-FITC/PI staining based flow cytometry analysis (reference value: 1.73 %); format: functional
A549 [27] = experiment: Induction of cell cycle arrest in human A549 cells assessed as accumulation of cells at G2 phase at 1 uM measured for 24 hrs by PI/Rnase staining based flow cytometry (reference value: 13.4 %); format: functional
[28] = Acute toxicity in Sprague-Dawley rat at 500 to 2000 mg/kg, po measured every 2 days; format: organism-based; details: in vivo, 48 h, dose 500-2000 mg/kg, time 2 day
A549 [29] = experiment: Induction of apoptosis in human A549 cells assessed as late apoptotic cells at 1 uM incubated for 24 hrs by Annexin V-FITC/PI staining based flow cytometry analysis (reference value: 2.56 %); format: functional
NCI-H1975 [30] = experiment: Inhibition of colony formation in human NCI-H1975 cells incubated for 2 weeks by crystal violet staining based analysis; format: functional, cell-based; details: dose 0.5-2 µM
NCI-H1975 [31] = experiment: Induction of apoptosis in human NCI-H1975 cells assessed as viable cells at 0.5 uM incubated for 24 hrs by Annexin V-FITC/PI staining based flow cytometry analysis (reference value: 90.1 %); format: functional; details: read-out: Activity
NCI-H1975 [32] = experiment: Antiproliferative activity against human NCI-H1975 cells incubated for 3 days by CCK-8 assay; format: functional, cell-based; details: NCI-H1975, 72 h
NCI-H1975 [33] = experiment: Induction of apoptosis in human NCI-H1975 cells assessed as late apoptotic cells at 0.5 uM incubated for 24 hrs by Annexin V-FITC/PI staining based flow cytometry analysis (reference value: 2.27 %); format: functional
Quadruplex DNA = experiment: Binding affinity to c-MET G4-quadruplex DNA (unknown origin) assessed as change in melting temperature

SMILES: COc1cccc(-c2ccc(-c3nc4c5cccnc5c5ncccc5c4[nH]3)o2)c1
- Activity (NCI-H1975 [1]): Active
- viability at 2 µM (A549 [2]): 57.4%
- viability at 0.5 µM (A549 [3]): 83.2%
- inhibition (NCI-H1975 [4]): Dose-dependent-effect
- IC50 (BaF3): 620 nM
- Activity (A549 [5]): 77.2%
- inhibition (A549 [6]): Dose-dependent-effect
- Activity (NCI-H1975 [7]): 84.2%
- Activity (NCI-H1975 [8]): 80.5%
- inhibition (A549 [9]): Active
- Activity [10]: Non-toxic
- Activity (A549 [11]): 23.5%
- Activity [12]: Non-toxic
- Activity [13]: Non-toxic
- inhibition in vivo at 20 mg/kg (A549 [14]): 55.6%
- Activity [15]: Non-toxic
- inhibition (A549 [16]): Dose-dependent-effect
- Activity (A549 [17]): 6.99%
- Activity [18]: Non-toxic
- Activity (A549 [19]): Active
- Activity (A549 [20]): Active
- Activity [21]: Non-toxic
- Activity [22]: Non-toxic
- Activity (A549 [23]): 75.4%
- viability at 1 µM (A549 [24]): 74%
- inhibition in vivo at 40 mg/kg (A549 [25]): 62.4%
- Activity (A549 [26]): 6.47%
- Activity (A549 [27]): 10.4%
- Activity [28]: Non-toxic
- Activity (A549 [29]): 10.8%
- inhibition (NCI-H1975 [30]): Dose-dependent-effect
- viability at 0.5 µM (NCI-H1975 [31]): 85.1%
- IC50 (NCI-H1975 [32]): 1680 nM
- Activity (NCI-H1975 [33]): 8.12%
- ΔTm (Quadruplex DNA): 10.8 °C
